Assay [1] deals with DNA topoisomerase 2-alpha (Homo sapiens) (UniProt P11388). The assay is described as follows: Poison activity at recombinant human topoisomerase-2alpha expressed in Saccharomyces cerevisiae assessed as stabilization of DNA-enzyme cleavage complex at 25 uM using supercoiled pBR322 DNA as substrate incubated for 6 mins measured after 30 mins by ethidium bromide staining based agarose gel electrophoresis method.

Assay [2] has as its target DNA topoisomerase 2-beta (Homo sapiens) (UniProt Q02880). Put plainly: Inhibition of recombinant human topoisomerase-2beta expressed in Saccharomyces cerevisiae assessed as stabilization of DNA-enzyme cleavage complex at 25 uM incubated for 6 mins followed by incubation in drug-free buffer by agarose gel electrophoresis method.
For assay [3] the target is unchanged. The assay is described as follows: Inhibition of recombinant human topoisomerase-2beta expressed in Saccharomyces cerevisiae assessed as increase in total DNA cleavage at 25 uM using supercoiled pBR322 DNA as substrate incubated for 6 mins measured after 30 mins by ethidium bromide staining based agarose gel electrophoresis method relative to etoposide.
For assay [4] the target is unchanged. Put plainly: Inhibition of recombinant human topoisomerase-2beta expressed in Saccharomyces cerevisiae assessed as increase in double-stranded DNA cleavage at 25 uM using supercoiled pBR322 DNA as substrate incubated for 6 mins measured after 30 mins by ethidium bromide staining based agarose gel electrophoresis method relative to etoposide.
Assay [5] has as its target DNA topoisomerase 2-alpha (Homo sapiens) (UniProt P11388). The assay is described as follows: Poison activity at recombinant human topoisomerase-2alpha expressed in Saccharomyces cerevisiae assessed as inhibition of DNA religation using single-stranded DNA at 25 uM incubated for 6 mins by agarose gel electrophoresis method.
Assay [6] concerns the target DNA topoisomerase 2-beta (Homo sapiens) (UniProt Q02880). The assay is described as follows: Poison activity at recombinant human topoisomerase-2beta expressed in Saccharomyces cerevisiae assessed as stabilization of DNA-enzyme cleavage complex by measuring concentration required to generate 10% double-stranded DNA breaks using supercoiled pBR322 DNA as substrate incubated for 6 mins measured after 30 mins by ethidium bromide staining based agarose gel electrophoresis method.

Assay [7] has as its target DNA topoisomerase 2-alpha (Homo sapiens) (UniProt P11388). The assay is described as follows: Inhibition of recombinant human topoisomerase-2alpha expressed in Saccharomyces cerevisiae assessed as increase in single-stranded DNA cleavage at 25 uM using supercoiled pBR322 DNA as substrate incubated for 6 mins measured after 30 mins by ethidium bromide staining based agarose gel electrophoresis method relative to etoposide.

Assay [8] addresses DNA topoisomerase 2-beta (Homo sapiens) (UniProt Q02880). The assay is described as follows: Poison activity at recombinant human topoisomerase-2beta expressed in Saccharomyces cerevisiae assessed as stabilization of DNA-enzyme cleavage complex at 25 uM using supercoiled pBR322 DNA as substrate incubated for 6 mins measured after 30 mins by ethidium bromide staining based agarose gel electrophoresis method.

Assay [9] shares this target. Put plainly: Inhibition of recombinant human topoisomerase-2beta expressed in Saccharomyces cerevisiae assessed as increase in single-stranded DNA cleavage at 25 uM using supercoiled pBR322 DNA as substrate incubated for 6 mins measured after 30 mins by ethidium bromide staining based agarose gel electrophoresis method relative to etoposide.
The target in assay [10] is DNA topoisomerase 2-alpha (Homo sapiens) (UniProt P11388). Put plainly: Inhibition of recombinant human topoisomerase-2alpha expressed in Saccharomyces cerevisiae assessed as stabilization of DNA-enzyme cleavage complex at 25 uM incubated for […] followed by incubation in drug-free buffer by agarose gel electrophoresis method.
Assay [11] has the same target. The assay is described as follows: Poison activity at recombinant human topoisomerase-2alpha expressed in Saccharomyces cerevisiae assessed as stabilization of DNA-enzyme cleavage complex by measuring concentration required to generate 10% double-stranded DNA breaks using supercoiled pBR322 DNA as substrate incubated for 6 mins measured after 30 mins by ethidium bromide staining based agarose gel electrophoresis method.

The target is the same in assay [12]. The assay is described as follows: Inhibition of recombinant human topoisomerase-2alpha expressed in Saccharomyces cerevisiae assessed as increase in double-stranded DNA cleavage at 25 uM using supercoiled pBR322 DNA as substrate incubated for 6 mins measured after 30 mins by ethidium bromide staining based agarose gel electrophoresis method relative to etoposide.

The target of assay [13] is DNA topoisomerase 2-beta (Homo sapiens) (UniProt Q02880). The assay is described as follows: Poison activity at recombinant human topoisomerase-2beta expressed in Saccharomyces cerevisiae assessed as inhibition of DNA religation using single-stranded DNA at 25 uM incubated for 6 mins by agarose gel electrophoresis method.
DNA topoisomerase 2-beta (Homo sapiens), sequence (Q02880 whole entry): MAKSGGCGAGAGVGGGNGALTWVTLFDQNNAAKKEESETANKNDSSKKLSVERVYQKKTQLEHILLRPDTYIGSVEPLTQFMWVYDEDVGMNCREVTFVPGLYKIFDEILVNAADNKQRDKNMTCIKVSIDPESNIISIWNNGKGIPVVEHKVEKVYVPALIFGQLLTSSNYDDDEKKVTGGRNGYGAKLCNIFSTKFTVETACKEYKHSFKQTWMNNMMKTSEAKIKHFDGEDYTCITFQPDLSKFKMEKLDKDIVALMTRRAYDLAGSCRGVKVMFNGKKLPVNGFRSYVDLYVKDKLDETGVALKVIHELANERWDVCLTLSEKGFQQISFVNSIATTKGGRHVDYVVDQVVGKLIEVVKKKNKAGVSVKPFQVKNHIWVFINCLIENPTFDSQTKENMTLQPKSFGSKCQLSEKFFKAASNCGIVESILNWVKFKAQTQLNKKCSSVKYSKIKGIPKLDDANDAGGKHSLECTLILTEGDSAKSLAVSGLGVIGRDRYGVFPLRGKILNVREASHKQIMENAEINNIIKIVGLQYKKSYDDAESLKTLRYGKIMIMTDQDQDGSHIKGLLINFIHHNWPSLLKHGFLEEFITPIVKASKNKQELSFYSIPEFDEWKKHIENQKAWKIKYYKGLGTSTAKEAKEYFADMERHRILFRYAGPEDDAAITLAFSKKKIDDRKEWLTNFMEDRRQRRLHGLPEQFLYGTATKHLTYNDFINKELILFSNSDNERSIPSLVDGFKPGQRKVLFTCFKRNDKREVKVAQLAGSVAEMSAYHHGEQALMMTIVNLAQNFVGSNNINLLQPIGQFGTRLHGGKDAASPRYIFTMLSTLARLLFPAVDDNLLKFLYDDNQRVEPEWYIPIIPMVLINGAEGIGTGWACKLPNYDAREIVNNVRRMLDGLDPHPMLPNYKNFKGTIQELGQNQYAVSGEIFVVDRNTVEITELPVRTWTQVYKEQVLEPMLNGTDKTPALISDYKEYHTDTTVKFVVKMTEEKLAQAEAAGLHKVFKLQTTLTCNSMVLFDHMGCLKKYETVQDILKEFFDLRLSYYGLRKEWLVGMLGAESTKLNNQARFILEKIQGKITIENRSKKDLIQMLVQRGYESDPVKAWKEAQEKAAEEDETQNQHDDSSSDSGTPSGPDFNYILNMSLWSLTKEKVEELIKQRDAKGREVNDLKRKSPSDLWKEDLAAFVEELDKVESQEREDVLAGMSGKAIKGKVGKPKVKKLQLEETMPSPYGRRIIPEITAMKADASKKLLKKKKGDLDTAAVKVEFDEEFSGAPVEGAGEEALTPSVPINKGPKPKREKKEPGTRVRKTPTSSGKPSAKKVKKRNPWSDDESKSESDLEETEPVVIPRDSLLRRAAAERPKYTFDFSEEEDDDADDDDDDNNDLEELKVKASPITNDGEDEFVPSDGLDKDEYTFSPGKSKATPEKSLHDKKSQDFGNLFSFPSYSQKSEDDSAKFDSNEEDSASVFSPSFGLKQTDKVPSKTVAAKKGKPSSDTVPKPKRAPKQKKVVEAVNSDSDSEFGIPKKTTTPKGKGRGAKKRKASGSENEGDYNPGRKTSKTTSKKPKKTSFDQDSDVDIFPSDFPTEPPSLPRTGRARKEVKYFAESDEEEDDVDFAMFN
For assay [14], the target named is DNA topoisomerase 2-alpha (Homo sapiens) (UniProt P11388). Put plainly: Inhibition of recombinant human topoisomerase-2alpha expressed in Saccharomyces cerevisiae assessed as increase in total DNA cleavage at 25 uM using supercoiled pBR322 DNA as substrate incubated for 6 mins measured after 30 mins by ethidium bromide staining based agarose gel electrophoresis method relative to etoposide.

The target is the same in assay [15]. The settings on record: 100 uM.
Description: Inhibition of recombinant human topoisomerase-2alpha expressed in Saccharomyces cerevisiae assessed as stabilization of DNA-enzyme cleavage complex at 100 uM incubated for 10 mins followed by incubation in drug-free buffer by agarose gel electrophoresis method
Assay [16] has as its target DNA topoisomerase 2-beta (Homo sapiens) (UniProt Q02880). Put plainly: Inhibition of recombinant human topoisomerase-2beta expressed in Saccharomyces cerevisiae assessed as stabilization of DNA-enzyme cleavage complex at 50 uM incubated for 6 mins followed by incubation in drug-free buffer by agarose gel electrophoresis method.
Assay [17] deals with DNA topoisomerase 2-alpha (Homo sapiens) (UniProt P11388). The settings on record: 100 uM. This is another data set of the same source.
Description: Poison activity at recombinant human topoisomerase-2alpha expressed in Saccharomyces cerevisiae assessed as inhibition of DNA religation using single-stranded DNA at 100 uM incubated for 6 mins by agarose gel electrophoresis method

The record followed here is ChEMBL document CHEMBL4229437, “Polyamine-containing etoposide derivatives as poisons of human type II topoisomerases: Differential effects on topoisomerase IIα and IIβ” (Bioorg Med Chem Lett, 2018).

The structures appear in SMILES notation. The source made the active and inactive calls. The calls are words filed in the database; no cut-off is given here.

DNA topoisomerase 2-alpha (Homo sapiens), sequence (P11388 whole entry): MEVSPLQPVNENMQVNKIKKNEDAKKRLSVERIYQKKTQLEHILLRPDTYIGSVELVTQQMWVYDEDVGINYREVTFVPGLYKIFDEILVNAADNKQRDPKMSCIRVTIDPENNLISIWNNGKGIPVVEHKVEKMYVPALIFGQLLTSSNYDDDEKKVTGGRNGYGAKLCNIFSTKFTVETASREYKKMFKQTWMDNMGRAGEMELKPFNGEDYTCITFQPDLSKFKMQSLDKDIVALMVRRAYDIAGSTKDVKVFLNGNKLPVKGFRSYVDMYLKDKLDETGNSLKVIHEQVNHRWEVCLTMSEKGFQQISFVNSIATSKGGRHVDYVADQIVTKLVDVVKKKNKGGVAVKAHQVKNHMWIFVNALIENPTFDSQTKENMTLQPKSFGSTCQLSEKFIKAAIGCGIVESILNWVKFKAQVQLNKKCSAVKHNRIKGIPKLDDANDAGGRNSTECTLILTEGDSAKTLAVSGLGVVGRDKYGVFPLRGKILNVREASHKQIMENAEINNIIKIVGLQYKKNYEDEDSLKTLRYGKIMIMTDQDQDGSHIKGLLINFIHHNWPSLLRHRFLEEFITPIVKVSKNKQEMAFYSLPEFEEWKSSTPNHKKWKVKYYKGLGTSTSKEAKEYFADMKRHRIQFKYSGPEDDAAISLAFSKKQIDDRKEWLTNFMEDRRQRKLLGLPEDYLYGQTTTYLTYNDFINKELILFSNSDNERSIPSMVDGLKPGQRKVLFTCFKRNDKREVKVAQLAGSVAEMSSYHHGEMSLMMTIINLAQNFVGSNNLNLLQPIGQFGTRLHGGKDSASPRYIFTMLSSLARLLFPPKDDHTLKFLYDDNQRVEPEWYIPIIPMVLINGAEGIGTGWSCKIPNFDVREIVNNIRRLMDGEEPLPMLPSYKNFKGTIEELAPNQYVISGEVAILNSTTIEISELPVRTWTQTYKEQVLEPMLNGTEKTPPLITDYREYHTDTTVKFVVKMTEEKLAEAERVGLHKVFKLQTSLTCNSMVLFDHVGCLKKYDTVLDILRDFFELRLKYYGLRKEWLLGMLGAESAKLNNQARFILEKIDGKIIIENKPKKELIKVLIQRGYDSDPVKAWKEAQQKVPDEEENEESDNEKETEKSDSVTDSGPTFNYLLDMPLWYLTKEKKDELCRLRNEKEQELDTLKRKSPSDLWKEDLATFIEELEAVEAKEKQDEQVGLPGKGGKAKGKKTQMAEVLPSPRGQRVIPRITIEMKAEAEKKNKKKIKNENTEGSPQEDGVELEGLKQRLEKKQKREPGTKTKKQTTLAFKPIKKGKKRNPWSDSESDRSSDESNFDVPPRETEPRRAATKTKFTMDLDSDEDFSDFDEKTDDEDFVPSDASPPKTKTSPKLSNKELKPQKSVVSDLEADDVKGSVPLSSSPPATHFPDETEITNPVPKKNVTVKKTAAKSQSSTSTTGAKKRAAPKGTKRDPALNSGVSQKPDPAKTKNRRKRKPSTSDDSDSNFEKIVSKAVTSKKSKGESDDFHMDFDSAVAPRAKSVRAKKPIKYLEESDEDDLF

Turning to `COc1cc([C@@H]2c3cc4c(cc3[C@@H](NC(=O)CNCCCNCCNCCCN)[C@H]3COC(=O)[C@H]23)OCO4)cc(OC)c1O`, the outcome in assay [1] and in assay [8] was inactive. In addition, the inhibition entry in [2], in [5], in [10] and in [13] was “Active” throughout. Also, the fold change (FC) in assay [3] was found to be 4.54; in [4], 4.66; in assay [7], 1.06; in [9] it was 4.27; in assay [12], 1.93; in assay [14] it was 1.38. For the same compound, the Activity in [6] was determined as 25.3 µM; in [11], 20.5 µM.
For the compound `COc1cc([C@@H]2c3cc4c(cc3[C@@H](NC(=O)CNCCCNCCCCNCCCN)[C@H]3COC(=O)[C@H]23)OCO4)cc(OC)c1O`, the outcome in assay [1] and in assay [8] was inactive. Besides, the inhibition result in assay [2], in assay [5], in [10] and in assay [13] was “Active” throughout. Also, the fold change (FC) in [3] is 7.85; in assay [4] it was 10.3; in [7], 0.92; in [9], 2.68; in assay [12] it was 2.48; in assay [14] it was 1.49. Further, the Activity came to 4.3 µM in assay [6] and 4.8 µM in [11].
As to `COc1cc([C@@H]2c3cc4c(cc3[C@@H](NC(=O)CNCCCNCCCCN)[C@H]3COC(=O)[C@H]23)OCO4)cc(OC)c1O`, the result in assay [1] and in [8] was inactive. For the same compound, the inhibition entry in assay [2], in assay [5], in assay [10] and in assay [13] was “Active” in each case. For the same compound, the fold change (FC) worked out at 6.8 in assay [3]; 7.69 in [4]; 1.14 in assay [7]; 4.92 in [9]; 1.52 in assay [12]; 1.28 in [14]. Also, the results for the Activity in [6] and in [11] were 11 µM and 54.1 µM, respectively.
Regarding `COc1cc([C@@H]2c3cc4c(cc3[C@@H](O[C@@H]3O[C@@H]5CO[C@@H](C)O[C@H]5[C@H](O)[C@H]3O)[C@H]3COC(=O)[C@H]23)OCO4)cc(OC)c1O`, the inhibition result in [15], in assay [16], in assay [17] and in [13] was “Active” each time. Further, the Activity in [6] and in assay [11] was greater than 100 µM throughout.
For `CNCCCNCCCCNCCCNCC(=O)N[C@@H]1c2cc3c(cc2[C@@H](c2cc(OC)c(O)c(OC)c2)[C@H]2C(=O)OC[C@@H]21)OCO3`, the outcome in assay [1] and in assay [8] was inactive. Also, the inhibition entry in [2], in assay [5], in [10] and in assay [13] was “Active” throughout. Moreover, the fold change (FC) in assay [3] is 6.51; in [4], 8.36; in assay [7], 1.37; in assay [9], 2.61; in assay [12] it was 2.16; in assay [14], 1.66. The Activity is 7.5 µM in assay [6] and 13.2 µM in assay [11].
As for `COc1cc([C@@H]2c3cc4c(cc3[C@@H](NC(=O)CNCCCOCCCCOCCCN)[C@H]3COC(=O)[C@H]23)OCO4)cc(OC)c1O`, the outcome in [1] and in [8] was inactive. Moreover, the inhibition result in [2], in assay [5], in assay [10] and in [13] was “Active” in each case. In addition, the fold change (FC) in assay [3] stood at 3.13; in [4], 2.9; in [7] it was 0.87; in [9], 3.63; in assay [12] it was 0.9; in assay [14], 0.88. Also, the results for the Activity in assay [6] and in assay [11] were 49.9 µM and 98.9 µM, respectively.
`COc1cc([C@@H]2c3cc4c(cc3[C@@H](NC(=O)CNCCCNCCCNCCCN)[C@H]3COC(=O)[C@H]23)OCO4)cc(OC)c1O`: the outcome in [1] and in assay [8] was inactive. The inhibition result in [2], in assay [5], in assay [10] and in assay [13] was “Active” each time. Besides, the fold change (FC) in assay [3] is 6.03; in assay [4], 7.85; in assay [7], 1.17; in assay [9], 2.21; in assay [12], 2.13; in [14], 1.52. Also, the Activity worked out at 8.1 µM in assay [6] and 12.2 µM in assay [11].
